According to patent US20060040253A1, “Use of Smad3 inhibitor in the treatment of fibrosis dependent on epithelial to mesenchymal transition as in the eye and kidney” (priority 2003, published 2006):

Columns and labels:
ARPE-19 cells [1] = assay: Production of PDGF, TGF-β1 and collagen type I in ARPE-19 cells treated with TGF-β2; format: cell-based, human
Method: Expression of PDGF-BB in ARPE-19 cells was assessed by western blot of cell lysates using PDGF-B (H-55, Santa Cruz Biotechnology, Inc.). Enzyme-linked immunosorbent assays (ELISAs) for PDGF-BB, PDGF-AB and TGF-β1 (R & D Systems, Inc., Minneapolis, Minn.) were used to determine the concentration of each peptide in the culture medium. ARPE-19 cells were grown in 6-well plates to near confluence and then cultured in 500 μl of serum-free DMEM/F-12 supplemented with antibiotics in the presence or absence of human recombinant TGF-β2 (1.0 ng/ml R & D Systems, Inc., Minneapolis, Minn.) for 48 or 96 hrs. Nine wells were prepared for each culture condition. Medium was processed for ELISAs for determination of the concentration of PDGF-BB and -AB according to the manufacturers' protocols. Medium (48 hr) was also processed for the determination of TGF-β1 by an ELISA kit (R & D Systems, Minneapolis, Minn.). Type I collagen was quantified in medium and sonicated cell lysates (48 hr) and processed for an ELISA system for type I collagen C-terminal peptide (PIP ELISA kit, Takara, Tokyo, Japan). Confluent cells grown on a chamber slides (Nunc) were immunostained for collagen type I (1:100 dilution in PBS, Southern Biotechnology).

ARPE-19 cells [2] = assay: ARPE-19 cell migration, in vitro closure of a defect in a monolayer cell sheet; format: cell-based, human; details: TGF-β2 1.0 ng/ml; 24 hrs for the untreated culture
Description: (§1) The ARPE-19 human RPE cell line (ATCC # CRL-2302) (Dunn, K. C. et al. 1996 Exp Eye Res 62:155-169) was used to assess effects of […] TGF-β2 on expression of αSMA and Smad3 activation as previously described (EXAMPLE 1). Effect of addition of TGF-β2 on ARPE-19 cell migration was examined by using a model of in vitro closure of a monolayer cell sheet as previously reported (Saika, S. et al. 1995 Graefes Arch Clin Exp Ophthalmol 233:347-353).

ARPE-19 cells [3] = assay: Proliferation of ARPE-19 cells (MTT assay); format: cell-based, human; details: sparse cultures, up to 120 hr; PDGF-BB 5 ng/ml, TGF-β2 1 ng/ml
Method: Effects of adding TGF-β2, PDGF-BB, and/or anti-PDGF-B-neutralizing antibody on proliferation of ARPE-19 cells were assessed using the MTT assay (TACS MTT Cell Proliferation Assay Kit, Trevigen, Gaithersburg, Md., USA) according to manufacturer's instruction. ARPE 19 cells suspended in DMEM/F-12 supplemented with 15% fetal calf serum (2×10^4/100 μl/well) were seeded in 96-well culture plates (8 wells for each condition). After 12 hrs cells were changed to 100 μl serum-free culture medium and cultured for an additional 120 hr supplemented with PDGF-BB (5.0 ng/ml) or TGF-β2 (1.0 ng/ml), with either neutralizing anti-PDGF-B antibody (20 μg/ml) or non-immune IgG (20 μg/ml) as control. At the end of each culture interval, MTT reagent (10 μl) was added to each well and the incubation continued for an additional 5 hr at 37° C. Optical density at 570 nm was measured 4 hr after adding the lysis solution contained in the kit.

ARPE-19 cells [4] = assay: EMT and Smad phosphorylation in ARPE-19 cells; format: cell-based, human
Description: as §1

lens epithelium = assay: Organ-culture of mouse lenses with TGF-β2; format: cell-based; details: TGF-β2 10 ng/ml, not KO
Method: The crystalline lens was carefully removed from enucleated eyes of adult Smad3-KO or WT mice and processed for organ-culture as previously described (Saika, S. et al. 2003 Invest Ophthalmol Vis Sci 44: 2094-2102). Three lenses were used in each culture condition. The lens was incubated in DMEM supplemented with antibiotics in the presence and absence of porcine TGF-β2 (10 ng/ml) with a medium change every 2 days. After 5 or 10 days of culture, the tissue was fixed in 2.0% paraformaldehyde as described above. Paraffin sections were processed for histology and immunohistochemistry.
Sections (5 μm) were deparaffinized and stained with hematoxylin and eosin (HE) alone or with polyclonal antibodies against collagen types I and V (both 1:100 dilution in PBS, Southern Biotechnology, Birmingham, Ala.), rabbit polyclonal anti-lumican antibody (10 μg/ml)(Saika, S. et al. 2000 J Biol Chem 275: 2607-2612), or with a mouse monoclonal anti-αSMA antibody (1:100 dilution in PBS, NeoMarker, Fremont, Calif., USA), rabbit polyclonal antibodies against the TGF-β isoforms as previously reported (Flanders, K. C. et al. 1991 Development 113: 183-191), or with non-immune IgG (control). After binding of labeled secondary antibody and the color reaction with 3,3′-diaminobenzidine, sections were counterstained with methyl green and mounted in balsam. […]

[5] = system: primary porcine RPE cells; assay: EMT in primary cultures of porcine RPE cells (αSMA immunostaining); format: cell-based; details: TGF-β2 10 ng/ml, 48 hr; not in its absence
Method: Cultures of primary porcine RPE cells were prepared by aspirating RPE layers from a hemi-sectioned pig eye after removing the retina by using a micropipette, and putting the aspirate in a 30-mm diameter collagen-coated plastic culture dish to allow the epithelial cells to outgrow. After reaching confluence, the cells were trypsinized, suspended in Dulbecco's modified Eagle's essential medium (DMEM) supplemented with 10% fetal calf serum, and seeded on fibronectin-coated chamber slides (Falcon, Becton Dickinson, Lincoln Park, N.J.) in the presence and absence of 10 ng/ml of porcine TGF-β2 (R & D systems Inc., Minneapolis, Minn.). At 24 hr culture intervals the cells were fixed and immunostained for αSMA.

RPE cells = assay: Wounding of the RPE cell layer in organ-cultured mouse globes; format: cell-based; details: TGF-β2 10 ng/ml, WT posterior segments; KO negative
Method: Both eyes were enucleated immediately after being sacrificed as described above. Anterior eye segment structures (cornea and lens) and retina were carefully removed from the globe. After the RPE cell layer had been wounded by scraping using a silicone needle, the tissue was cultured in Eagle's medium supplemented with 10% fetal calf serum in the presence or absence of human recombinant TGF-β2 at 10 ng/ml for 48 hr. The tissue was fixed and embedded in paraffin as previously described (Example 1).
Sections (5 μm) were deparaffinized and stained with hematoxylin and eosin (HE) alone or with polyclonal antibodies against collagen type VI (1:100 dilution in PBS, Southern Biotechnology, Birmingham, Ala.), rabbit polyclonal anti-lumican antibody (10 μg/ml (Saika, S. et al. 2000 J Biol Chem 275:2607-2612)), mouse monoclonal anti-αSMA antibody (1:100 dilution in PBS, NeoMarker, Fremont, Calif., USA), goat polyclonal anti-PDGF-B antibody (1:200 dilution in PBS, Santa Cruz), mouse monoclonal anti-proliferating cell nuclear antigen (PCNA) antibody (1:100 dilution in PBS, Santa Cruz) or with non-immune IgGs (control). After binding of FITC-labeled secondary antibodies (1:100 dilution in PBS, Cappel ICN, Aurora, Ohio, USA), the specimens were observed under fluorescent microscopy followed by mounted with VectaShield with nuclear DAPI staining. […]

Substance: TGF-β2: exogenous TGF-β2 growth factor; porcine or human recombinant depending on experiment
- amount of type I collagen in culture medium and cell lysate (ELISA) (ARPE-19 cells [1]; 48 hr): increase
- PDGF-AB production (ELISA) (ARPE-19 cells [1]; TGF-β2 1.0 ng/ml): significantly increased
- concentration of PDGF-BB in culture medium (ELISA) (ARPE-19 cells [1]; TGF-β2 1.0 ng/ml, 96 hrs): approximately 500 pg/ml
- PDGF-B protein expression (Western blotting) (ARPE-19 cells [1]; TGF-β2 1.0 ng/ml, beginning about 48-72 hrs after addition): time-dependent up-regulation
- PDGF-BB protein secreted into the culture medium, increase above control cultures (ELISA) (ARPE-19 cells [1]; TGF-β2 1.0 ng/ml, confluent cultures): over 2 fold
- expression of TGF-β1 in medium (ELISA) (ARPE-19 cells [1]; exogenous TGF-β2, 48 hr): significant increase
- time to closure of the defect in wounded monolayer (ARPE-19 cells [2]): ≤ 12 h
- growth of the cells (MTT assay) (ARPE-19 cells [3]): inhibited
- αSMA expression (ARPE-19 cells [4]; TGF-β2 for 72 hr): clusters of αSMA positive cells
- time of highest level of nuclear translocation of Smad3 after addition of TGF-β2 (ARPE-19 cells [4]; immunofluorescence, no longer detectable at 24 hr): 1 h
- time to phosphorylation of Smads2/3 after TGF-β2 exposure (Western blotting) (ARPE-19 cells [4]; remained activated up to 48 hrs): ≤ 30 min
- lens epithelium morphology and EMT markers (lumican, αSMA, collagen type I) (lens epithelium; 10 days, WT lenses): multilayer of cells of a fibroblastic morphology
- expression of lumican (lens epithelium; day 5, WT lenses): up-regulated expression of lumican
- αSMA expression [5]: express αSMA
- αSMA expression in wounded pigment epithelium (RPE cells): expresses αSMA faintly at 24 hr and then clearly at 48 hr
